Laboratory results as given in ChEMBL document CHEMBL1152471 (2008).

How the values were obtained:
Type in all cases: functional
[1] = test system: Mycobacterium tuberculosis; assay: Antituberculosis activity against Mycobacterium tuberculosis by bactec 460 TB method
[2] = test system: Mycobacterium tuberculosis; assay: Antituberculosis activity against Mycobacterium tuberculosis by bactec MGIT 960 method
[3] = test system: Mycolicibacterium smegmatis; assay: Antituberculosis activity against linezolid-resistant Mycobacterium smegmatis without mutation in 23S rRNA

Measured: MIC

CC(=O)NC[C@H]1CN(c2ccc(N3CCOCC3)c(F)c2)C(=O)O1 [LINEZOLID]
4 µg/mL: [1] | [2] | [3]
